Values after ≈ are worked out from the molar mass of the structure shown.
How the values were obtained:
[1] = test system: S. pneumoniae (penicillin-resistant); experiment: MIC by broth microdilution; format: cell-based; settings: N=352; for MIC50 / MIC90: Streptococcus pneumoniae
Method: (§1) Whole-cell antimicrobial activity was determined by broth microdilution. Test compounds were dissolved in DMSO and diluted 1:10 in water to produce a 64 mcg/ml stock solution. Using a 96 well microtitre plate, a Microlab AT Plus 2 (Hamilton Co., Reno, Nev.) serially diluted 50 ul of the stock solution into an appropriate broth medium. Staphylococcal isolates were tested using cation adjusted Mueller Hinton broth. For S. pneumonaie testing, the Mueller Hinton broth was supplemented with 5% lysed horse blood and H. influenzae was tested with Haemophilus Test Medium. After the compounds were diluted, a 50 ul aliquot of the test isolate (˜1×10^6 cfu/ml) prepared in normal saline was added to each well of the microtitre plate. The final test concentrations ranged from 0.016-16 ug/mL. Inoculated plates were incubated at 35° C. in ambient air for 18 to 24 hours. The minimum inhibitory concentration (MIC) was determined as the lowest concentration of compound that inhibited visible growth.

[2] = test system: S. pneumoniae (macrolide-resistant); experiment: MIC by broth microdilution; format: cell-based; settings: N=552; for MIC50 / MIC90: Streptococcus pneumoniae
Method: as §1

[3] = test system: S. pyogenes (macrolide-resistant); experiment: MIC by broth microdilution; format: cell-based; settings: N=83; for MIC50 / MIC90: Streptococcus pyogenes
Method: as §1

[4] = test system: S. pneumoniae (levofloxacin-resistant); experiment: MIC by broth microdilution; format: cell-based; settings: N=13; for MIC50 / MIC90: Streptococcus pneumoniae
Method: as §1

[5] = test system: S. aureus (methicillin-resistant); experiment: MIC by broth microdilution; format: cell-based; settings: N=51; for MIC50 / MIC90: Staphylococcus aureus
Method: as §1

[6] = test system: methicillin resistant S. aureus WCUH29; experiment: murine groin abscess infection model, oral efficacy; format: in vivo; settings: mouse; for reduction of bacterial counts compared to non-treated controls: oral, p≦0.01
Method: Oral efficacy of Compound A was evaluated in a murine groin abscess infection model caused by a methicillin resistant S. aureus WCUH29. Animals were infected via subcutaneous injection into the groin with 0.5 mL of inoculum (approximately 5.7 log10 cfu/mouse). Groups of mice (n=5) received either Compound A (100, 300 or 600 mg/kg), moxifloxacin (100 mg/kg) or azithromycin (50 mg/kg).

S. pneumoniae Pen^R = experiment: MIC by broth microdilution; format: cell-based; settings: 5 isolates
Method: as §1

S. pneumoniae Eryth^R = experiment: MIC by broth microdilution; format: cell-based; settings: 5 isolates
Method: as §1

S. aureus Tetracycline^R = experiment: MIC by broth microdilution; format: cell-based; settings: 6 isolates
Method: as §1

S. aureus Meth^R/Ery^R = experiment: MIC by broth microdilution; format: cell-based; settings: 10 isolates
Method: as §1

S. epidermidis Meth^R = experiment: MIC by broth microdilution; format: cell-based; settings: 6 isolates
Method: as §1

H. influenzae ClarR = experiment: MIC by broth microdilution; format: cell-based; settings: 5 isolates
Method: as §1

[7] = test system: S. aureus VRSA (vanc MIC > 4 μg/mL); experiment: MIC by broth microdilution; format: cell-based; settings: 2 isolates
Method: as §1

H. influenzae BLNAR = experiment: MIC by broth microdilution; format: cell-based; settings: 5 isolates
Method: as §1

S. aureus Ketek^R = experiment: MIC by broth microdilution; format: cell-based; settings: 4 isolates
Method: as §1

S. pneumoniae Cipro^R = experiment: MIC by broth microdilution; format: cell-based; settings: 5 isolates
Method: as §1

S. aureus Linezolid^R = experiment: MIC by broth microdilution; format: cell-based; settings: 3 isolates
Method: as §1

[8] = test system: S. aureus VISA (vanc. MIC 4 μg/mL); experiment: MIC by broth microdilution; format: cell-based; settings: 4 isolates
Method: as §1

S. aureus Mupirocin^R = experiment: MIC by broth microdilution; format: cell-based; settings: 8 isolates
Method: as §1

| SMILES | MIC Range [1] | MIC50 [1] [µg/mL] | MIC90 [1] [µg/mL] | MIC Range [2] | MIC50 [2] [µg/mL] | MIC90 [2] [µg/mL] | MIC Range [3] | MIC50 [3] [µg/mL] | MIC90 [3] [µg/mL] | MIC Range [4] | MIC50 [4] [µg/mL] | MIC90 [4] [µg/mL] | MIC50 [5] [µg/mL] | MIC90 [5] [µg/mL] | other results |
| --- | --- | --- | --- | --- | --- | --- | --- | --- | --- | --- | --- | --- | --- | --- | --- |
| CO/N=C(\C(=O)N[C@@H]1C(=O)N2C(C(=O)O)=C(COC(N)=O)CS[C@H]12)c1ccco1 [Cefuroxime] | 1 to 32 µg/mL | 4 (≈ 9.43 µM) | 8 (≈ 18.9 µM) | ≦0.015-32 μg/mL | 4 (≈ 9.43 µM) | 8 (≈ 18.9 µM) | ≦0.015-0.12 μg/mL | ≤ 0.015 | ≤ 0.015 | ≦0.015-8 μg/mL | 2 (≈ 4.71 µM) | 8 (≈ 18.9 µM) | 4 (≈ 9.43 µM) | > 32 | – |
| COc1c(N2C[C@@H]3CCCN[C@@H]3C2)c(F)cc2c(=O)c(C(=O)O)cn(C3CC3)c12 [Moxifloxacin] | – | 0.12 (≈ 0.299 µM) | 0.25 (≈ 0.623 µM) | – | 0.12 (≈ 0.299 µM) | 0.25 (≈ 0.623 µM) | 0.06 to 0.5 µg/mL | 0.12 (≈ 0.299 µM) | 0.25 (≈ 0.623 µM) | – | 4 (≈ 9.96 µM) | 8 (≈ 19.9 µM) | 0.12 (≈ 0.299 µM) | 4 (≈ 9.96 µM) | reduction of bacterial counts ([6]; 100 mg/kg): 4.6 log10 cfu/abscess |
| C[C@H]1COc2c(N3CCN(C)CC3)c(F)cc3c(=O)c(C(=O)O)cn1c23 [Levofloxacin] | – | 1 (≈ 2.77 µM) | 1 (≈ 2.77 µM) | – | 1 (≈ 2.77 µM) | 2 (≈ 5.53 µM) | 0.12 to 2 µg/mL | 0.5 (≈ 1.38 µM) | 1 (≈ 2.77 µM) | – | > 8 | > 8 | 0.5 (≈ 1.38 µM) | > 8 | – |
| CC[C@H]1OC(=O)[C@H](C)[C@@H](O[C@H]2C[C@@](C)(OC)[C@@H](O)[C@H](C)O2)[C@H](C)[C@@H](O[C@@H]2O[C@H](C)C[C@H](N(C)C)[C@H]2O)[C@](C)(O)C[C@@H](C)CN(C)[C@H](C)[C@@H](O)[C@]1(C)O [Azithromycin] | – | > 16 | > 16 | – | > 16 | > 16 | – | 16 (≈ 21.4 µM) | > 16 | – | 16 (≈ 21.4 µM) | > 16 | > 16 | > 16 | reduction of bacterial counts ([6]; 50 mg/kg): 3.4 log10 cfu/abscess |
| C=C[C@]1(C)C[C@@H](OC(=O)NC(=O)c2cnc(OC)c(N)c2)[C@]2(C)C(C)CC[C@]3(C[C@H](O)C(=O)[C@H]32)[C@@H](C)[C@@H]1O (stereo partly shown) [Compound A] | 0.03 to 1 µg/mL | 0.25 (≈ 0.472 µM) | 0.25 (≈ 0.472 µM) | 0.015 to 1 µg/mL | 0.25 (≈ 0.472 µM) | 0.25 (≈ 0.472 µM) | 0.12 to 0.25 µg/mL | 0.25 (≈ 0.472 µM) | 0.25 (≈ 0.472 µM) | 0.12 to 0.5 µg/mL | 0.25 (≈ 0.472 µM) | 0.5 (≈ 0.944 µM) | 1 (≈ 1.89 µM) | 1 (≈ 1.89 µM) | MIC Range (S. pneumoniae Pen^R): 0.06 to 0.25 µg/mL; MIC Range (S. pneumoniae Eryth^R): 0.125 to 0.25 µg/mL; MIC Range (S. aureus Tetracycline^R): 0.5 to 2 µg/mL; MIC Range (S. aureus Meth^R/Ery^R): 0.5 to 2 µg/mL; MIC Range (S. epidermidis Meth^R): 0.25 to 1 µg/mL; MIC Range (H. influenzae ClarR): 4 to 8 µg/mL; MIC Range [7]: 0.5 µg/mL (≈ 0.944 µM); MIC Range (H. influenzae BLNAR): 2 µg/mL (≈ 3.78 µM); MIC Range (S. aureus Ketek^R): 0.5 to 4 µg/mL; MIC Range (S. pneumoniae Cipro^R): 0.125 to 0.25 µg/mL; MIC Range (S. aureus Linezolid^R): 2 µg/mL (≈ 3.78 µM); MIC Range [8]: 0.5 to 4 µg/mL; MIC Range (S. aureus Mupirocin^R): 0.25 to 1 µg/mL; MIC Range [5]: 0.25 to 2 µg/mL; reduction of bacterial counts compared to non-treated controls ([6]; 300 mg/kg): 3.6 log10 cfu/abscess; reduction of bacterial counts compared to non-treated controls ([6]; 600 mg/kg): 4.3 log10 cfu/abscess |
| CC[C@H]1OC(=O)[C@H](C)C(=O)[C@H](C)[C@@H](O[C@@H]2O[C@H](C)C[C@H](N(C)C)[C@H]2O)[C@](C)(OC)C[C@@H](C)C(=O)[C@H](C)[C@H]2N(CCCCn3cnc(-c4cccnc4)c3)C(=O)O[C@]12C [Telithromycin] | ≦0.002-16 μg/mL | 0.25 (≈ 0.308 µM) | 2 (≈ 2.46 µM) | ≦0.002-16 μg/mL | 0.25 (≈ 0.308 µM) | 2 (≈ 2.46 µM) | – | 0.03 (≈ 0.0369 µM) | 8 (≈ 9.85 µM) | ≦0.002-2 μg/mL | 0.12 (≈ 0.148 µM) | 0.5 (≈ 0.616 µM) | 0.25 (≈ 0.308 µM) | > 16 | – |
